# Measurements reported in a melting point compilation (Tetko et al.; mined from patent text by program, amines drawn as free bases though some values may be those of a salt).
# Residues, ends and D or L forms follow the SMILES beside them. *: point of attachment. Boc = CC(C)(C)OC(=O)*
row,SMILES,melting point [°C]
1,O=C(O)c1ccc(NCCCCCCCCCCc2ccccc2)cc1,80 to 87
2,Cn1c(C(F)(F)F)cc(=O)n(-c2c(F)cc(Cl)c3cc(CO)oc23)c1=O,198 to 199
3,Nc1nc(-c2ccncc2)nc2[nH]c(S)nc12,> 330
4,COC(=O)c1cc(OCc2ccc3ccccc3n2)no1,133 to 134
5,Cc1oc(-c2ccco2)nc1COc1ccc(Cn2cc(CCC(=O)O)c(-c3ccc(C(F)(F)F)cc3)n2)cc1,92 to 93
6,CN(C)S(=O)(=O)c1cc2c(c(Cl)c1Cl)OC(CCl)C2 (stereo not given),77 to 78
7,O=C(NCc1ccn(-c2cc3nc(C(=O)O)c(=O)[nH]c3cc2Cl)c1)Nc1cccc2ccccc12,196 to 198
8,CCN(C(=O)Cc1ccc(S(C)(=O)=O)cc1)C1CCN(C(=O)OC(C)(C)C)CC1,138 to 140
9,NNC(=O)Cc1c(F)cccc1F,177 to 178
10,Nc1ccc2c(c1)c(=O)[nH]c(=O)n2CCCCN1CCC(OC(c2ccccc2)c2ccccc2)CC1,131 to 133
11,CCOc1cc(OC)c(C(=O)C=Cc2ccc(OC)cc2)c(OP(=O)(O)O)c1,85 to 88
12,N#Cc1cccc(C2=NOC3(C2)OC(=O)c2ccccc23)c1 (stereo not given),134 to 137
13,CCc1ccc2oc(C(=O)Nc3ccc(-c4ccc(S(=O)(=O)NC(C(=O)O)C(C)C)cc4)cc3)c(C)c2c1O (stereo not given),122 to 125
14,CN1CCN(c2cccc3c2C[C@H](NC(=O)c2ccc(C(=O)c4ccccc4)cc2)CC3)CC1,194 to 195
15,CCOC(=O)NN=COC(N)CC (stereo not given),100
16,Cc1cc(O)cc2c1CCC2(C)C,80 to 81
17,COc1ccc2[nH]c(=O)n3c(=O)[nH]nc3c2c1,> 350
18,COc1ccc2c3c(cn2S(=O)(=O)c2ccc(C)cc2)CC(N=[N+]=[N-])C(=O)c13 (stereo not given),147 to 148
19,Cc1cc(-n2cc(-c3ccc(S(C)(=O)=O)cc3)nc2C)cc2ccc(=O)[nH]c12,345 to 347
20,NS(=O)(=O)c1nc2ccc(OC(=O)c3ccccc3)cc2s1,208 to 210
21,O=c1[nH]c(=O)n(CCCCN2CCC(OC(c3ccccc3)c3ccccc3)CC2)c2ccc(Cl)cc12,209 to 210
22,Nc1nc2ccc3cc(S(=O)(=O)Nc4ccc(C(=O)N[C@@H](CCC(=O)O)C(=O)O)cc4)c(Br)cc3c2c(=O)[nH]1,238 to 242
23,Cc1nccn1C(=O)c1ccccc1,143 to 144
24,COC(=O)c1ccc(-c2ncc(-c3ccc4c(c3)C(C)(C)CCC4(C)C)o2)cc1,153 to 155
25,CCCCCCCCCCCCCCCCCCOc1ccc(NC(=O)c2ccc(OC(C)=O)cc2)cc1OCCCCCCCCCCCCCCCCCC,107

row,SMILES,melting point [°C]
1,O=C(Nc1ccc(-c2ncc(-c3ccc(NC(=O)C4CCCCCC4)cc3)[nH]2)cc1)c1ccc(Cl)c(Cl)c1,304 to 306
2,Cc1c(C2CCC(c3ccccc3)(N(C)C)CC2)[nH]c2ccc(OC(F)(F)F)cc12 (stereo not given),219 to 221
3,Cc1c2c(cc3c(-c4ccccc4F)noc13)CC(C(=O)O)O2 (stereo not given),188 to 189
4,O=C(Nc1ccc([N+](=O)[O-])cc1)c1ccccc1Br,200 to 202
5,CN1CCC(c2c[nH]c3ccc(NC(=O)c4ccc(Cl)s4)nc23)CC1,118 to 120
6,O=C(CCCCN1CCCCC1)c1ccc2c(c1)Cc1cc(C(=O)CCCCN3CCCCC3)ccc1O2,129 to 130
7,O=C(Nc1ccc2ccc(Cl)nc2n1)C1CC1,250
8,C=Cc1cc(C)cc(C)c1CC(=O)N(C)C1(C#N)CCN(OC)CC1,148 to 151
9,O=C(O)CCCCCCC1=CCCC1=O,41 to 43
10,Cc1ccc(C)c(OCc2ccccc2C(=NOC(F)F)C(N)=O)c1,153 to 156
11,CCc1cc2c(c3c1[nH]c1ccc(O)cc13)C(=O)N(CCN(CC)CC)C2=O,188 to 189
12,CCc1c(CCC(=O)OC)ccc2c1OCO2,44 to 46
13,Cc1oc(-c2ccccc2)nc1CCOc1ccc(CCCCC2OC(=O)NC2=O)cc1 (stereo not given),136 to 137
14,COc1cc(C)c(C(=O)c2ccccc2)c(OC)c1OC,88 to 89
15,CCOC(=O)Cc1nc2cc(Cl)ccc2o1,90 to 91
16,CS(=O)(=O)Nc1cc(F)cc(C(O)CN)c1 (stereo not given),167 to 169
17,CCSC(=S)N1Cc2[nH]c3ccccc3c2CC1C(=O)O (stereo not given),177 to 178
18,COCCN1C(=O)CCCc2cc(N)ccc21,134 to 135
19,CCCCc1c(C(=O)OCC)cc(Oc2nnnn2-c2ccccc2)c2c(OC)cccc12,144 to 146
20,CC1=NC(C)(C)SC1=NO,159 to 161
21,COC(=O)C(CCSC)NC(=O)C(CC(C)C)NC(=O)CNC(=O)C(NC(=O)C(Cc1ccccc1)NC(=O)C(C)NC(=O)OC(C)(C)C)C(C)C (stereo not given) (Boc-AFVGLM-OMe; configuration not given here),252 to 254
22,Cc1ccc(Sc2cncc3sc(C(=O)NCC(O)CO)cc23)cc1 (stereo not given),120 to 122
23,CCOC(=O)c1c(C)nc2[nH]c3ccccc3c2c1N,253 to 254
24,CCCc1cnc2c(c1)C(=O)N1C2=NC(=O)C1(C)C(C)C (stereo not given),116
25,OCc1ncc2n1CCCC2,188 to 199

row,SMILES,melting point [°C]
1,Cc1cccc(C)c1COc1cc(C(=O)O)cc2c1nc(C)n2C,285 to 286
2,COc1ccnc(C(=O)c2[nH]c3cc(Cl)ccc3c2N)c1,195 to 196
3,O=S(=O)(c1ccc(Cl)cc1)C(CCSCCO)c1cc(F)ccc1F (stereo not given),108 to 110
4,CCCCCNC(=O)c1cnc(N2CCN(C(=O)c3ccccc3C(F)(F)F)CC2)s1,92 to 94
5,O=S1(=O)CCCSC(Cl)=N1,156
6,O=Cc1ccc(-c2ccc(-c3ccc(C=O)o3)cc2)o1,233 to 234
7,Cc1nc2ccc(N(C)C)nn2c1S(N)(=O)=O,227
8,O=S=c1cc(-c2ccc(O)cc2)ss1,118 to 124
9,CCCCCCCCCCCOc1cccc(CCCC(NC(C)=O)(C(=O)OCC)C(=O)OCC)c1,38 to 39
10,COc1ccc(-c2nc3cnccc3[nH]2)c(O)c1,255
11,CN(C)C(=O)c1c(Oc2ccccc2)cccc1Oc1ccccc1,109 to 111
12,N#Cc1coc2ccc3ccc(O)cc3c2c1=O,289 to 292
13,O=C(CCCCl)Nc1nnc(-c2ccc(Br)cc2)s1,187 to 189
14,Cc1cc(C)c(S(=O)(=O)OCCCCOS(=O)(=O)c2c(C)cc(C)cc2C)c(C)c1,109
15,CC#CC1(O)CCC2C3CCC4=CC(=O)CCC4C3C(C(F)F)CC21C (stereo not given),191 to 193
16,O=C1Cc2cccc(-c3ccccc3)c2C1,133 to 136
17,O=C(O)CCc1cn(Cc2ccc(OCc3csc(-c4cnccn4)n3)cc2)cc1-c1ccccc1,137 to 138
18,O=C(O)C(O)N1C(=O)CCN1c1cccc(Cl)c1 (stereo not given),134 to 136
19,CCNc1nc(C)c(-c2ccnc(Nc3ccc(N4CCCCC4)c(C)c3)n2)s1,213 to 214
20,COc1ccc2c(c1)C=CC(C#N)N2C(=O)c1ccccc1 (stereo not given),124
21,COc1ccc(-c2nc(CCBr)nc3cc(OC)c(OC)cc23)cc1OC,166 to 167
22,Cc1ccc(S(=O)(=O)C(CC=Cc2ccc(Cl)cc2)C(=O)O)cc1 (stereo not given),162 to 164
23,Cn1c(C(F)(F)F)nn(-c2ccccc2N)c1=O,101
24,COc1cc([N+](=O)[O-])ccc1-c1ccc(-c2ccc([N+](=O)[O-])cc2OC)o1,308 to 310
25,CN1C(=O)c2ccccc2CC1C(=O)NC(Cc1c[nH]cn1)C(=O)N1CCCC1C(N)=O (stereo not given),140 to 145

row,SMILES,melting point [°C]
1,CC(C)(C)OC(=O)Cn1cccc(NC(=O)OCc2ccccc2)c1=O,88 to 90
2,CCn1cc(C(=O)O)c(=O)c2cc(F)c(N3CCC(N)C3)c(C)c21 (stereo not given),187 to 194
3,N#CC(=CO)c1ccc(Cl)cc1Cl,162 to 163
4,C=Cc1c(C(=O)O)nc(Cl)c(F)c1N,164 to 166
5,CC(C)(C)OC(=O)C(Nc1ccccc1)c1ccc(Cl)cc1 (racemic),98
6,CCOC(=O)N1CCc2cc(OC)c(OC)cc2CC1,91 to 93
7,CCOC(=O)Cn1cc(C(=O)NCCN(C)C)c2nc3c(C)cccc3cc2c1=O,214 to 215
8,Cc1nc(C)n2c1CN=C(c1ccccc1F)c1cc(Cl)ccc1-2,178 to 180
9,O=C(O)[C@@H]1C[C@H](Cc2ccc(Cl)cc2)CN1,233 to 235
10,COc1cc(Nc2nccc(Nc3ccc(N4CCOCC4)cc3)n2)cc(OC)c1OC,214
11,O=C(O)c1cccc2c1CCC2Cl (stereo not given),136 to 138
12,O=C(c1ccc(O)c(Cc2ccc(=O)[nH]n2)c1)c1c(Cl)cc(Cl)cc1Cl,258
13,CC(=O)C1=C(C)Nc2nc(N)nc(N)c2C1c1ccccc1Cl (stereo not given),254
14,CN(C)C(=O)COc1cc(Cl)ccc1C(=O)NCCN1CCN(C(=O)OC(C)(C)C)CC1,139 to 140
15,O=[N+]([O-])c1cccc(Nc2nccc(Sc3cccc(Br)c3)n2)c1,208 to 209
16,CCCC1=Nc2ccccc2CC(c2ccsc2)N1C (stereo not given),44.5 to 46.5
17,COC(=O)c1cccc(Cn2c(C(=O)Nc3nc(-c4cc(OC)c(C)cc4OC)c(CCC4CCCCC4)s3)cc3cc(C)cc(C)c32)c1,219 to 220
18,COc1ccc(C2=NN(C)C(=O)[C@H]3CCCC[C@@H]23)cc1OC (relative stereo),110 to 112
19,CCCc1c(OCCCSCCBr)ccc(C(C)=O)c1O,74 to 75
20,Cc1ccc(C2C(=O)N(c3ccccc3)N(c3ccccc3)C2=O)cc1,184 to 185
21,C[C@H](NC(=O)OCc1ccccc1)C(=O)N[C@@H](Cc1ccccc1)C(=O)O,121 to 122
22,CNC1CCc2[nH]c3cccc(C)c3c2C1 (stereo not given),163 to 166
23,CCCCCCCCCCCCCCCCC[C@@H](C[C@@H]1OC(=O)[C@H]1CCCCCC)OC(=O)[C@H](CC(C)C)NC=O,64 to 65
24,O=C(Cl)N1CCC(Oc2cccc3c2CCC3)C1 (stereo not given),128 to 129
25,COc1ccc(C(=O)Nc2ccc(F)c(F)c2)cc1NCc1ccc(C(=O)O)cc1,> 240
